According to patent US6861442B1, “PYK2 and inflammation” (Sugen, Inc., priority 1998, dated 2005):

How the values were obtained:
P388D1 cells = assay: TNF-α secretion by P388D1 macrophage clones measured by ELISA; format: cell-based, murine; details: for Secretion of TNF-α caused by the stimulus: 1 μg/mL, overnight (18 hours), P388D1 doxycycline inducible clones; for Secretion of TNF-α: P388D1 cells stimulated with LPS or PMA
Text: FIGS. 8a, 8b, 8c, and 8d compare the secretion of TNF-α by wild-type and kinase mutant P388D1 cells in response to activators of macrophage function or PYK2 activity. FIGS. 8a and 8b show the effect of LPS in the presence and absence of DOX on TNF-α secretion from kinase mutant (dominant negative; FIG. 8a) and wild-type (FIG. 8b) cells. FIGS. 8c and 8d show the effect of PMA in the presence and absence of DOX on TNF-α secretion from kinase mutant (FIG. 8c) and wild-type (FIG. 8d) cells. Induction of P388D1 cells in the presence of doxicycline was carried out for 48 hours followed by stimulation with LPS (1 μg/mL) or PMA (1 μg/mL) for 18 hrs. Secreted TNF-α was measured by ELISA.
TNF secretion in response to stimulation with either LPS (1 μg/mL) or PMA (1 μg/mL) by the doxycycline inducible clones is shown in FIG. 8. Induction in the presence of doxycycline was carried out for 48 hours followed by stimulation with LPS or PMA overnight (18 hours). […] Secreted TNF-α was measured by ELISA. […] Secretion of TNF-α was inhibited by herbimycin A and genestein, which are non-specific inhibitors of tyrosine phosphorylation.

Pyk2 = molecular target: T1, Pyk2 (Mus musculus, UniProt Q9QVP9); assay: Tyrosine phosphorylation of Pyk2 in response to LPS stimulation in P388D1 cells (anti-Pyk2 IP, anti-phosphotyrosine 4G10 western blot); format: cell-based, murine; details: P388D1 cells pre-treated 4 hours, then stimulated with LPS for 30 minutes
T1 construct: abrogates the function of the endogenous wild-type PYK2 protein in these macrophages; endogenous in cells; host or cells: P388D1 murine macrophage cell line
Method: FIGS. 6a and 6b show the tyrosine phosphorylation of PYK2 in macrophage cell lines in response to LPS (lipopolysaccharide) and tyrosine kinase inhibitors. Cells were either starved overnight in 0.5% serum and stimulated with LPS for variable time intervals (FIG. 6a), or were pre-treated with either herbimycin A or genestein for 4 hours and then stimulated with LPS for 30 minutes (FIG. 6b). After stimulation, cells were washed, lysed, and immunoprecipitated with anti-PYK2 antibody. Immunoprecipitates (IP) were then analyzed by western blotting.
Cells were lysed in lysis buffer containing 50 mM N-2-hydroxyethylpiperazine-N′-2-ethanesulferic acid (HEPES pH 7.5), 150 mM NaCl, 10% glycerol, 1% Triton X-100, 1.5 mM MgCl2, 1 mM ethyleneglycol-bis (β-aminoethyl ether)-N,N,N′N′-tetraacetic acid (EGTA), 10 μg leupeptin per mL, 10 μg aprotinin per mL, 1 mM phenylmethylsulfonyl fluoride (PMSF), 200 μM sodium orthovanadate and 100 mM sodium fluoride. […] The washed immunoprecipitates were incubated for 5 min with gel sample buffer at 100° C. and analyzed by sodium dodecyl sulfate polyacrylamide gel electrophoresis (SDS-PAGE). […]
Tyrosine phosphorylation of Pyk2 in response to LPS stimulation was measured in P388D1 cells. […] Immuno-precipitates were then analyzed by western blotting. Tyrosine phosphorylated bands were detected with the anti-phosphotyrosine antibody 4G10. […]

wild type macrophages = assay: Cytoplasmic calcium release in single Fura-2 loaded adherent macrophages; format: cell-based, mice; details: wild type macrophages attached to cover slips
Method: Cells grown in 6-well plates were labeled for 24 h in medium-199 containing myo-[^3H]inositol(20 μCi/ml). The cells were washed once with PBS and pre-incubated for 10 min. in 2 ml of PBS containing 10 mM LiCl (PH 7.4) at 37° C. prior to the addition of chemokines. The cells were extracted with methanol/1M HCl/chloroform 1:1:1 and analyzed by high-performance liquid chromatography (HPLC) as described (Falasca, et al. (1998) EMBO J. 17:414-422). [Ca^2+] i measurements were performed in single macrophages as described (Falasca, et al. 1995).
Calcium plays an important role in the control of a variety of intracellular events as well as in the control of cell shape, and cell movement (Lawson and Maxfield, 1995). We therefore measured cytoplasmic calcium release in single cells in response to MIP1α stimulation by using quantitative fluorescence microscopy of Fura-2 loaded cells. […] Defect in calcium release may contribute towards the failure of the cells to detach at the rear end leading to impairment in cell migration since proteins that regulate the degradation of focal contact components and disassembly of F-actin require calcium for their action (Witke, et al. (1995) Cell 81:41-51; Kulkarni, et al. (1999) J. Biol Chem. 274:21265-21275).

T1 sequence (Q9QVP9 whole entry): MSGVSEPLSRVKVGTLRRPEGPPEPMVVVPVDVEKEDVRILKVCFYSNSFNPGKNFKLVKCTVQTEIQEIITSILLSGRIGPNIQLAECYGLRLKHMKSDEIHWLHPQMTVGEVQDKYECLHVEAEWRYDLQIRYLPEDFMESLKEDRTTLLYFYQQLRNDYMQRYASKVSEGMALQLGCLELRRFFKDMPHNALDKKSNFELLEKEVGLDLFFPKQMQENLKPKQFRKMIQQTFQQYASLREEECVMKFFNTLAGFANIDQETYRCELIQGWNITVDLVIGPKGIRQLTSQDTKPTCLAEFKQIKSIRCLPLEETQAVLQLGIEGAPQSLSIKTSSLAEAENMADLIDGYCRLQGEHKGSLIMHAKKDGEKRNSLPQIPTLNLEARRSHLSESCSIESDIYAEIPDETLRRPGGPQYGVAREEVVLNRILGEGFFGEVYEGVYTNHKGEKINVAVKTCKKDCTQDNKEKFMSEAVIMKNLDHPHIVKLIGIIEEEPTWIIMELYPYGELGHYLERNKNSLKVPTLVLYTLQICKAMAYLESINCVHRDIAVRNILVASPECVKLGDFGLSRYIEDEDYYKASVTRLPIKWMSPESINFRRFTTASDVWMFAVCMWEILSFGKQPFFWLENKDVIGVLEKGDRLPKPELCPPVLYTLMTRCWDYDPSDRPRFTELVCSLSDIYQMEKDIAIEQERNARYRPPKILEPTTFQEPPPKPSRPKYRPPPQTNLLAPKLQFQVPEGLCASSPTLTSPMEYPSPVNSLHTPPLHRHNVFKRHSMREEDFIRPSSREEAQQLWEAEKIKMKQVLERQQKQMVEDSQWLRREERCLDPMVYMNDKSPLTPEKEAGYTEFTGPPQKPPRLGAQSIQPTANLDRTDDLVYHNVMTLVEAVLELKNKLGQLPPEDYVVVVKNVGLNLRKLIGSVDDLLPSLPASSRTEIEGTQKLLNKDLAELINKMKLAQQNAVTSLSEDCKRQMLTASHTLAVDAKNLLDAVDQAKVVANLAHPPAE

| Compound | Secretion of TNF-α caused by the stimulus (P388D1 cells) | Tyrosine phosphorylation of Pyk2 (Pyk2) | Secretion of TNF-α (P388D1 cells) | Maximum increase in cytoplasmic [Ca+2] concentration (wild type macrophages) |
| --- | --- | --- | --- | --- |
| CCCCCCCCCCCCCC(=O)O[C@@H]1[C@@H](C)[C@@]2(O)[C@@H](C=C(CO)C[C@]3(O)C(=O)C(C)=C[C@@H]23)[C@@H]2C(C)(C)[C@]12OC(C)=O [PMA, phorbol 12-myristate 13-acetate] | caused secretion of TNF-α |  |  |  |
| O=c1c(-c2ccc(O)cc2)coc2cc(O)cc(O)c12 [genestein] |  | diminished | inhibited |  |
| CO[C@H]1[C@@H](OC)C[C@H](C)[C@@H](OC)C2=CC(=O)C=C(NC(=O)/C(C)=C/C=C\[C@H](OC)[C@@H](OC(N)=O)/C(C)=C/[C@@H]1C)C2=O [herbimycin A] |  | diminished | inhibited |  |
| MIP1α: chemokine used to stimulate macrophages |  |  |  | approximately 300 nM |
| lipopolysaccharide [LPS] | caused secretion of TNF-α |  |  |  |
